# Columns and labels:
# [1] = Half-life in plasma; type: in vitro ADME; settings: unit inferred, unit assumed
# [2] = system: Calpain-mediated breakdown of spectrin in platelets; test: Platelet membrane permeability assay; type: cell-based, rat; design: unit not given here; settings: numeric value, unit not given
# Procedure: Platelet membrane permeability assay. Calpain-mediated breakdown of spectrin was measured by quantitative densitometry of the calpain-specific 150/155 kDa spectrin fragment doublet [see Siman et al., Proc. Natl. Acad. Sci. USA 81, 3572-3576 (1984)]. Platelets were isolated by a modification of the method of Ferrell and Martin [J. Biol. Chem. 264, 20723-20729 (1989)]. Blood (15-20 ml) was drawn from male Sprague-Dawley rats into 1/10th volume of 100 mM EDTA-citrate, and centrifuged 10 minutes at 2000 rpm in a clinical centrifuge at room temperature. […] Platelets were washed once in 15 ml buffer 1, then resuspended to 10^7 cells/ml in buffer 2 (136 mM NaCl, 2.7 mM KCl, 0.42 mM NaH2 PO4, 12 mM NaHCO3, 2mM MgCl, 1 mg/ml BSA (Sigma), 5.6 mM glucose, 20 mM HEPES (Sigma) pH 7.4) and allowed to "rest" for a minimum of 10 minutes at room temperature before use.
# Inhibitors were added from stock solutions made fresh in DMSO. 100 μl platelets, suspended to 10^7 cells/ml in buffer 2, were incubated with 1 μl of an inhibitor solution for 5 minutes at room temperature prior to the addition of 2 mM Ca^2+ and 1 uM A23 187. After 10 minutes total exposure to inhibitor (5 minutes exposure to ionophore) at room temperature, platelets were reisolated at 14,000 rpm for 10 sec in a Beckman microfuge, dissolved in SDS-PAGE sample buffer, and heated to 90° C. for 3 minutes.
# Samples were subjected to SDS-PAGE in 4-12% gradient mini gels (Novex) and transferred to nitrocellulose (Schleicher and Schuell 0.45 um) by electroblotting. Filters were blocked for 10 minutes in 0.25% gelatin, 1% BSA, 0.25% triton X100, 0.9% NaCl, 10 mM Tris-Cl pH 7.5, incubated overnight in the same solution containing antibody to rat spectrin, washed 3×10 minutes with 10 mM Tris-Cl pH 7.5, 0.5% triton X100, incubated 4 hours in wash buffer plus alkaline phosphatase conjugated goat anti-rabbit antibody (Biorad), and washed as above. Blots were developed using the Biorad AP conjugate substrate kit. Quantitative densitometry was used to obtain values for the intact spectrin bands and the 150/155 kDa breakdown product doublet.
t 1/2 plasma [1],SMILES,platelet (Activity in the Platelet Assay) [2]
> 1 h,"CCNC(=O)C(=O)[C@H](CC)NC(=O)[C@H](CC(C)C)NC(=O)OCc1ccccc1 [Z--Leu--Abu--CONH--Et, Z-Leu-Abu-CONH-Et]",1.5
> 1 h,"CCCCNC(=O)C(=O)C(CC)NC(=O)C(CC(C)C)NC(=O)OCc1ccccc1 (stereo not drawn) [Z--Leu--Abu--CONH--nBu, Z-Leu-Abu-CONH-nBu]",2.0
> 1 h,"CCNC(=O)C(=O)[C@H](Cc1ccccc1)NC(=O)[C@H](CC(C)C)NC(=O)OCc1ccccc1 [Z--Leu--Phe--CONH--Et, Z-Leu-Phe-CONH-Et]",1.7
> 1 h,"CCCNC(=O)C(=O)C(Cc1ccccc1)NC(=O)C(CC(C)C)NC(=O)OCc1ccccc1 (stereo not drawn) [Z--Leu--Phe--CONH--nPr, Z-Leu-Phe-CONH-nPr]",24

# From patent US5610297A, “Peptides ketoamides” (Georgia Tech Research Corp., priority 1995, dated 1997)
